“And” between values parts separate entries of the source, which are not always exact repeats. Equal entries are not always repeated.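 Step 1: Grow cells in 96-well plates. Step 2: Expose to compound for 48 hours at 5 concentrations. Step 3: Interpolate endpoints linearly; if unreached, use highest concentration. At the GI50, growth is halved. TGI is the concentration that stops growth completely.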
Key:
Assay in all cases: NCI tumour cell line growth inhibition, 48 h
ACHN renal = test system: ACHN renal
SF-295 CNS = test system: SF-295 CNS
SW-620 colon = test system: SW-620 colon
SNB-75 CNS = test system: SNB-75 CNS
OVCAR-3 ovarian = test system: OVCAR-3 ovarian
DMS 114 small cell lung = test system: DMS 114 small cell lung
KM20L2 colon = test system: KM20L2 colon
XF 498 CNS = test system: XF 498 CNS
DLD-1 colon = test system: DLD-1 colon
EKVX NSCLC = test system: EKVX NSCLC
CCRF-CEM leukemia = test system: CCRF-CEM leukemia
PC-3 prostate = test system: PC-3 prostate

Row | Compound | TGI (ACHN renal) | TGI (SF-295 CNS) | TGI (SW-620 colon) | TGI (SNB-75 CNS) | TGI (OVCAR-3 ovarian) | TGI (DMS 114 small cell lung) | TGI (KM20L2 colon) | TGI (XF 498 CNS) | TGI (DLD-1 colon) | TGI (EKVX NSCLC) | TGI (CCRF-CEM leukemia) | TGI (PC-3 prostate) | GI50 (PC-3 prostate) | GI50 (SF-295 CNS) | GI50 (SNB-75 CNS) | GI50 (OVCAR-3 ovarian) | GI50 (EKVX NSCLC) | GI50 (CCRF-CEM leukemia)
1 | COc1ccc(/C=N/NS(=O)(=O)c2ccccc2)cc1 | > 100 µM | > 100 µM | > 100 µM | > 100 µM | > 100 µM | > 100 µM | > 100 µM | > 100 µM | > 100 µM | > 100 µM | > 100 µM | – | – | – | – | – | – | –
2 | CCCCC1(C(NC(=O)c2ccccc2Cl)c2ccncc2)C(=O)N(c2ccccc2)N(c2ccccc2)C1=O (centres undefined) | > 100 µM | > 100 µM | > 100 µM | 71.4 µM | > 100 µM | > 100 µM | > 100 µM | > 100 µM | > 100 µM | > 100 µM | > 100 µM | – | – | – | – | – | – | –
3 | Cc1ccc(OC(=O)N2C/C(=C\c3ccccc3)C(=O)/C(=C/c3ccccc3)C2)cc1 | 80.9 µM | 47.6 µM | 35.6 µM | 55.4 µM | 37.4 µM | 59.4 µM | > 100 µM | 49.1 µM | 28.1 µM | > 100 µM | 16.3 µM | > 100 µM | – | – | – | – | – | –
4 | COc1cc2c(c(OC)c1OC)C(=O)NCCC2 | > 100 µM | > 100 µM | > 100 µM | > 100 µM | > 100 µM | > 100 µM | > 100 µM | > 100 µM | > 100 µM | > 100 µM | > 100 µM | – | – | – | – | – | – | –
5 | Cc1nc2ccccc2c(=O)n1/N=C(\N=Nc1cc(Cl)ccc1Cl)c1ccccc1 | > 100 µM | > 100 µM | > 73.8 µM | 74.1 µM | > 100 µM | 82.4 µM | 4.47 µM | > 100 µM | > 100 µM | > 100 µM | > 100 µM | > 100 µM | – | – | – | – | – | –
6 | N#CCc1cccc(CC#N)c1Br | > 100 µM | > 100 µM | > 100 µM | > 100 µM | > 100 µM | > 100 µM | > 100 µM | > 100 µM | > 100 µM | > 100 µM | > 100 µM | – | – | – | – | – | – | –
7 | CNC(=O)OCc1nc(SC)n(C)c1COC(=O)NC | 361 µM | 551 µM | 685 µM | 349 µM | 444 µM | 199 µM | 482 µM | 446 µM | 494 µM | 492 µM | 494 µM | 484 µM | – | – | – | – | – | –
8 | O=c1[nH]cnc2n[nH]nc12 | > 100 µM | > 53.4 µM | > 100 µM | > 69.8 µM | 63.8 µM | 56.1 µM | > 100 µM | 83.5 µM | – | > 100 µM | > 100 µM | > 100 µM | 5.99 µM | – | – | – | – | –
9 | COc1cccc(/C=N\NC(=O)C(C)SC(C)C(=O)N/N=C/c2cccc(OC)c2)c1 (centres undefined) | 35.6 µM | > 88.6 µM | > 100 µM | 33.2 µM | 39.3 µM | 41.6 µM | > 100 µM | > 100 µM | > 100 µM | 60.2 µM | > 93.5 µM | – | – | – | – | – | – | –
10 | C1=CC2CCC1CN2CCC1CNc2ccccc21 (centres undefined) | > 100 µM | > 100 µM | > 100 µM | > 100 µM | > 100 µM | > 100 µM | > 100 µM | > 100 µM | > 100 µM | > 100 µM | > 100 µM | – | – | – | – | – | – | –
11 | NCCCN=c1ccc2c3c1c(O)c1c(O)ccc(=O)c1c3[nH]n2CCNCCO | 4.52 µM | 7.44 µM and 39.9 µM | 9.98 µM and 40.5 µM | 5.14 µM and 4.69 µM | 17.4 µM and 22.5 µM | > 250 µM | 38.4 µM | 6.05 µM | 159 µM | 17.9 µM and 42 µM | 8.77 µM and 28.3 µM | 15.6 µM and 68 µM | 5.08 µM | 1060 nM | 423 nM | 4.18 µM | 6.08 µM and 4.62 µM | 583 nM and 478 nM
12 | COc1ccc(Br)c(C(=O)N2CCc3ccccc32)c1N | > 100 µM | > 100 µM | > 100 µM | 90.3 µM | 66.2 µM | 79.4 µM | > 100 µM | > 100 µM | > 100 µM | – | > 100 µM | – | – | – | – | – | – | –
13 | NC1=NCN(C2OC(CO)C(O)C2O)C(=O)N1 (centres undefined) | 106 µM | 1460 µM | 1340 µM | 392 µM | 361 µM | 437 µM | 1530 µM | 197 µM | 1560 µM | 1870 µM | 541 µM | 1530 µM | – | – | – | – | – | –

Source: PubChem BioAssay (NCI)
